Laboratory results: ChEMBL document CHEMBL1141968, “A lead compound for the development of ABA 8'-hydroxylase inhibitors” (Bioorg Med Chem Lett, 2005)

Key:
[1] = molecular target: T1, Abscisic acid 8'-hydroxylase 3 (Arabidopsis thaliana, UniProt Q9FH76); assay: Inhibitory activity against recombinant CYP707A3 in Arabidopsis
T1 sequence (Q9FH76 whole entry): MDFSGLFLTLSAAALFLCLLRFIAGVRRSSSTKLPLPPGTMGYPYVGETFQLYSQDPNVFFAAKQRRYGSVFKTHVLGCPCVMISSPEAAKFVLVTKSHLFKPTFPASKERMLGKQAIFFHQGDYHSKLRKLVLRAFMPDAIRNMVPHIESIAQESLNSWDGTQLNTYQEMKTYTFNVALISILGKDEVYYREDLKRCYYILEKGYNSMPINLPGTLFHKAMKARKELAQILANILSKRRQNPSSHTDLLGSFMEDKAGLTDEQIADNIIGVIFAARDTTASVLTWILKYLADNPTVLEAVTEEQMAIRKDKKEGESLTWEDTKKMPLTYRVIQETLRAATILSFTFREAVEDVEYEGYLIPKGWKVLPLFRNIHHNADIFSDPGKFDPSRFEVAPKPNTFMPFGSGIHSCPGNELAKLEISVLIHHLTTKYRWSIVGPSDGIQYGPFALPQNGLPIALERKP

[2] = system: Lactuca sativa; assay: Effect on seed germination in lettuce (Lactuca sativa L.Cv Grand Rapids); assay type: functional, organism-based
[3] = molecular target: T1, Abscisic acid 8'-hydroxylase 3; assay: Inhibitory activity against recombinant CYP707A3 in Arabidopsis at 50 uM
[4] = system: Oryza sativa; assay: Effect on seed elongation in Rice (Oryza sativa L.Cv.Nipponbare); assay type: functional, organism-based

Row | SMILES | Ki [1] | IC50 [2] | IC50 [1] | inhibition at 50 µM [3] | IC50 [4]
1 | CC1=CC(=O)C[C@](C)(C(F)F)[C@@]1(O)/C=C/C(C)=C\C(=O)O | 170 nM | – | – | – | –
2 | C[C@H]1CCCC(C)(C)[C@@]1(O)/C=C/C=C\C(=O)O (racemic) | 400 nM | > 300000 nM | 910 nM | 90.9% | > 300000 nM
3 | CC1=CC(=O)CC(C)(C)[C@@]1(O)/C=C/C(C)=C\C(=O)O [(+)-ABSCISIC ACID] | – | 12000 nM | – | – | 2000 nM
4 | C[C@H]1CCC[C@](C)(C(F)F)[C@@]1(O)/C=C/C=C\C(=O)O (racemic) | 410 nM | 150000 nM | 630 nM | 94% | > 300000 nM
